Assay results as given in ChEMBL document CHEMBL4825666, “Antitrypanosomal Lactones from Nectandra barbellata” (J Nat Prod, 2021).
The source made the active and inactive calls. The calls are words filed in the database; no cut-off is given here.

Assays:
Trypanosoma cruzi [1] = assay: Antitrypanosomal activity against trypomastigote forms of Trypanosoma cruzi Y infected in LLC-MK2 cells assessed as parasite growth inhibition by resazurin assay; type: functional, organism-based
[2] = Cytotoxicity against mouse NCTC clone 929 cells assessed as reduction in cell viability after 48 hrs by MTT assay; type: cell-based
[3] = Selectivity index, ratio of CC50 for cytotoxicity against mouse NCTC clone 929 cells to IC50 for trypomastigote forms of Trypanosoma cruzi Y infected in LLC-MK2 cells; type: toxicity, cell-based; details: read-out: Ratio CC50/IC50
Trypanosoma cruzi [4] = assay: Induction of mitochondrial membrane depolarization in trypomastigote forms of Trypanosoma cruzi Y at IC50 measured after 2 hrs by JC-1 staining based flow cytometry; type: functional, organism-based
Cell membrane [5] = assay: Induction of cell membrane permeability in trypomastigote forms of Trypanosoma Cruzi Y at IC50 measured after 80 mins by SYSTOX Green assay; type: subcellular
Cytochrome P450 2C9 = Cytochrome P450 2C9 (Homo sapiens, UniProt P11712); assay: Inhibition of CYP2C9 (unknown origin); type: ADME
Cytochrome P450 2C9, sequence (P11712 whole entry): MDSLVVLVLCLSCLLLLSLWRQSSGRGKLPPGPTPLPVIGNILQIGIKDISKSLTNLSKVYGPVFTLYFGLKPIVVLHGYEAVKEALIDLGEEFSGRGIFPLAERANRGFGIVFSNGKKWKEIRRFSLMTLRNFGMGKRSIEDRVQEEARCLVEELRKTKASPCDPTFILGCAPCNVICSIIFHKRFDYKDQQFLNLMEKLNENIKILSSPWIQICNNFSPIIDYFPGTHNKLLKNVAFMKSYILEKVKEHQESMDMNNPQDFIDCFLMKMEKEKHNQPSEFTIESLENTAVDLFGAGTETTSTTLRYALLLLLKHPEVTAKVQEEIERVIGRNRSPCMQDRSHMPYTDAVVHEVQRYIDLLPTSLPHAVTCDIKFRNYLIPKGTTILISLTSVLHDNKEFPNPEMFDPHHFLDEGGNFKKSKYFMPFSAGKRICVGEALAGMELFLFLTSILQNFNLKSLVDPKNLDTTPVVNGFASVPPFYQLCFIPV

Trypanosoma cruzi [6] = assay: Antitrypanosomal activity against Trypanosoma cruzi Y assessed as increase in calcium level at IC50 measured upto 160 min by Fluo-4 AM probe-based spectrofluorimetric method; type: functional, organism-based; details: time min <=160
Cytochrome P450 1A2 = target: T1, Cytochrome P450 1A2 (Homo sapiens, UniProt P05177); assay: Inhibition of CYP1A2 (unknown origin); type: ADME
T1 sequence (P05177 whole entry): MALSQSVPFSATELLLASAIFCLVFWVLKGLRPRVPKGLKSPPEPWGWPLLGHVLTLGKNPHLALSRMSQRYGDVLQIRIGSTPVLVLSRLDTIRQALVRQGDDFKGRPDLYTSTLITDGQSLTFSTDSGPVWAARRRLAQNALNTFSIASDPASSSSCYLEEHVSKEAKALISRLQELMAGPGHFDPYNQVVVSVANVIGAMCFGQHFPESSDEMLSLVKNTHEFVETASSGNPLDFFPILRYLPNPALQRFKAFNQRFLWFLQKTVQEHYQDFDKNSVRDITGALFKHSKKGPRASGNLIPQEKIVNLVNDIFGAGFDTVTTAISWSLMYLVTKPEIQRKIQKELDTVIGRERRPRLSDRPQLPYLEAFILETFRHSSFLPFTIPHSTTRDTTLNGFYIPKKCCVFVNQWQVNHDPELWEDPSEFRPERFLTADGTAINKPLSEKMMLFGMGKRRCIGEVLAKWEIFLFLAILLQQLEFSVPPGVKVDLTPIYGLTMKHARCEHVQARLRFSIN

Cell membrane [7] = assay: Induction of cell membrane permeability in trypomastigote forms of Trypanosoma Cruzi Y at IC50 measured after 120 mins by SYSTOX Green assay; type: subcellular
Cytochrome P450 2D6 = Cytochrome P450 2D6 (Homo sapiens, UniProt P10635); assay: Inhibition of CYP2D6 (unknown origin); type: ADME
Cytochrome P450 2D6, sequence (P10635 whole entry): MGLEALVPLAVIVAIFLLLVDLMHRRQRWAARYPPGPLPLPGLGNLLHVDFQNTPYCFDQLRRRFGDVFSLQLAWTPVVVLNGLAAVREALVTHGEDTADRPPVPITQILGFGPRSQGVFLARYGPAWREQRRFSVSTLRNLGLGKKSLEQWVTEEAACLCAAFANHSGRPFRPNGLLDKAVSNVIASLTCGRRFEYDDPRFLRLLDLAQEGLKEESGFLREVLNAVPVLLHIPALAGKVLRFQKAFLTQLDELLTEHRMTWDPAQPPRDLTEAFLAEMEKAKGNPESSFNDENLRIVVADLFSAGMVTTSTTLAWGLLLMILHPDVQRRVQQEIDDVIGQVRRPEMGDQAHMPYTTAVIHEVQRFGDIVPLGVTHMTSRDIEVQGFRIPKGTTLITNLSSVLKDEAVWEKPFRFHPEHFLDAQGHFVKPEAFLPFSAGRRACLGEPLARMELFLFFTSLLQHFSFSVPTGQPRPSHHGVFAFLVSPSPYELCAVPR

Trypanosoma cruzi [8] = assay: Induction of ROS generation in trypomastigote forms of Trypanosoma cruzi Y assessed as effect on reactive oxygen species level at IC50 for 2 hrs by fluorimetric microplate reader method; type: functional, organism-based
Cytochrome P450 2C19 = Cytochrome P450 2C19 (Homo sapiens, UniProt P33261); assay: Inhibition of CYP2C19 (unknown origin); type: ADME
Cytochrome P450 2C19, sequence (P33261 whole entry): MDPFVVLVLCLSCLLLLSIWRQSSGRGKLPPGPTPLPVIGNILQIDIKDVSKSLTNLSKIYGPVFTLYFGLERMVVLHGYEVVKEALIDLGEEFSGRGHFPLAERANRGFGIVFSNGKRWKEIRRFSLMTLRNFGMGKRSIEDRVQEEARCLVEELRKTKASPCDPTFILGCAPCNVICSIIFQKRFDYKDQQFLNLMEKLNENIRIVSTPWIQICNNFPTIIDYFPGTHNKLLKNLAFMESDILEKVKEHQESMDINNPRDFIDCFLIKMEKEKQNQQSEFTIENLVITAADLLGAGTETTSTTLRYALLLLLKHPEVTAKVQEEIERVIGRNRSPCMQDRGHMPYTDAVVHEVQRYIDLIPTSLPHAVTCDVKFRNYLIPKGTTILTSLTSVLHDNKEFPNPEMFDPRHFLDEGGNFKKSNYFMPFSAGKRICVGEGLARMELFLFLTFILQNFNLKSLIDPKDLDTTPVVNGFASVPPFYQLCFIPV

Trypanosoma cruzi [9] = assay: Antitrypanosomal activity against trypomastigote forms of Trypanosoma cruzi Y assessed as increase in ATP levels at IC50 incubated for 2 hrs by microplate reader method; type: functional, organism-based
Trypanosoma cruzi [10] = assay: Induction of acidocalcisome alkalinization in trypomastigotes form of Trypanosoma cruzi Y assessed as upregulation of Ca2+ level at IC50 using acridine orange measured after 60 min by fluorescent based assay
Cell membrane [11] = assay: Induction of plasma membrane depolarization in trypomastigote forms of Trypanosoma cruzi Y at IC50 measured after 2 hrs by DiSBAC2(3)-probe based assay
Cytochrome P450 3A4 = Cytochrome P450 3A4 (Homo sapiens, UniProt P08684); assay: Inhibition of CYP3A4 (unknown origin); type: ADME
Cytochrome P450 3A4, sequence (P08684 whole entry): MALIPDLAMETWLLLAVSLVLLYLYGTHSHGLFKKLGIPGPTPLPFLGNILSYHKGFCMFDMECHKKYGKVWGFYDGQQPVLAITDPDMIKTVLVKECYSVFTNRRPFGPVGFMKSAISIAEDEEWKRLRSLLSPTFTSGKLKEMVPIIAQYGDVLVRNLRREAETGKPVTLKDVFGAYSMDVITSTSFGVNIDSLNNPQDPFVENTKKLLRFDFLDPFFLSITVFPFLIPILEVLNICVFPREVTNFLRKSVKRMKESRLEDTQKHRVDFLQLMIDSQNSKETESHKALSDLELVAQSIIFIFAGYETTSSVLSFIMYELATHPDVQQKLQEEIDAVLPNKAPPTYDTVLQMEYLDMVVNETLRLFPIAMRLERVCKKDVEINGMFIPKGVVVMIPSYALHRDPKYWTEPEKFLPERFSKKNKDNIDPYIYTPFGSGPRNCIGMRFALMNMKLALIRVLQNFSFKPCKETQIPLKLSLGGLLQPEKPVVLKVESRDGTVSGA

Trypanosoma cruzi [12] = assay: Antitrypanosomal activity against trypomastigote forms of Trypanosoma cruzi Y assessed as increase in ATP levels at IC50 incubated for 1 hrs by microplate reader method; type: functional, organism-based

IC50 (Trypanosoma cruzi [1]) [µM] | inhibition (INH) (Cytochrome P450 2C9) | inhibition (INH) (Cytochrome P450 1A2) | inhibition (INH) (Cytochrome P450 2D6) | inhibition (INH) (Cytochrome P450 2C19) | Activity (Trypanosoma cruzi [10]) | Activity (Cell membrane [11]) | inhibition (INH) (Cytochrome P450 3A4) | Structure (SMILES) | CC50 at 48 h [2] [µM] | selectivity ratio [3] | Activity (Trypanosoma cruzi [4]) | Activity (Cell membrane [5]) | Activity (Trypanosoma cruzi [6]) | Activity (Cell membrane [7]) | Activity (Trypanosoma cruzi [8]) | Activity (Trypanosoma cruzi [9]) | Activity (Trypanosoma cruzi [12])
2.1 | Not Active | Not Active | Not Active | Not Active | Active | Active | Not Active | CCCCCCCCCCCCCCCCCCCCC/C=C1/C[C@H](CO)OC1=O | > 200 | > 95.2 | Active | Active | Active | inactive | inactive | inactive | inactive
13.1 | Active | Active | Active | Active | Active | Active | Active | C=CCCCCCCCCCCCCC/C=C1/C[C@H](CO)OC1=O | > 200 | > 15.3 | Active | Active | Active | inactive | inactive |  | Active
4 | Active | Active | Active | Active |  | Active | Active | CCCCCCCCCCCCCCC/C=C1/C[C@H](CO)OC1=O | 71.2 | 17.8 |  |  |  |  |  |  | 

Structure (SMILES) | IC50 (Trypanosoma cruzi [1]) [µM] | inhibition (INH) (Cytochrome P450 2C9) | inhibition (INH) (Cytochrome P450 1A2) | inhibition (INH) (Cytochrome P450 2D6) | inhibition (INH) (Cytochrome P450 2C19) | Activity (Trypanosoma cruzi [10]) | Activity (Cell membrane [11]) | inhibition (INH) (Cytochrome P450 3A4) | CC50 at 48 h [2] [µM] | selectivity ratio [3] | Activity (Trypanosoma cruzi [4]) | Activity (Cell membrane [5]) | Activity (Trypanosoma cruzi [6]) | Activity (Cell membrane [7]) | Activity (Trypanosoma cruzi [8]) | Activity (Trypanosoma cruzi [9]) | Activity (Trypanosoma cruzi [12])
O=C(Cn1ccnc1[N+](=O)[O-])NCc1ccccc1 [BENZNIDAZOLE] | 16.4 |  |  |  |  |  |  |  | > 200 | > 12.2 |  |  |  |  |  |  | 
